Reference: the supplement of paper PMC10307832

What was measured:
Assay in all cases: relative viability (nuclei count vs DMSO), 5 days (fraction); higher = more cells survive
[1] = compound: CN(C)CC1=CC(=CC=C1)N=C(C2=CC=CC=C2)C3=C(NC4=C3C=CC(=C4)C(=O)N(C)C)O + O=C(c1cc(Cc2n[nH]c(=O)c3ccccc23)ccc1F)N1CCN(C(=O)C2CC2)CC1 [Olaparib] (partner 8 µM)
In short: (§1)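 Lung cancer cell lines were pin-tool dosed in 1536-well plates on the day after seeding, with either a lone drug or a fixed anchor-drug dose plus five library-drug doses (not always all listed) in √10 steps. Nuclei were counted on 4× images after 5 days. Relative viability is the ratio of treated-well to vehicle-well nuclei counts, with each value a median of duplicate plates.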

[2] = compound: CN(C)CC1=CC(=CC=C1)N=C(C2=CC=CC=C2)C3=C(NC4=C3C=CC(=C4)C(=O)N(C)C)O + CC(C)C[C@H](NC(=O)[C@H](Cc1ccccc1)NC(=O)c1cnccn1)B(O)O [Bortezomib] (partner 0.002 µM)
In short: as §1

[3] = compound: CN(C)CC1=CC(=CC=C1)N=C(C2=CC=CC=C2)C3=C(NC4=C3C=CC(=C4)C(=O)N(C)C)O + CC(=O)Nc1cccc(-n2c(=O)n(C3CC3)c(=O)c3c(Nc4ccc(I)cc4F)n(C)c(=O)c(C)c32)c1 [Trametinib] (partner 0.02 µM)
In short: as §1

[4] = compound: CN(C)CC1=CC(=CC=C1)N=C(C2=CC=CC=C2)C3=C(NC4=C3C=CC(=C4)C(=O)N(C)C)O + CS(=O)(=O)N1CCN(Cc2cc3nc(-c4cccc5[nH]ncc45)nc(N4CCOCC4)c3s2)CC1 [Pictilisib] (partner 1 µM)
In short: as §1

Cell Line | relative viability ([1]; first compound 0.08 µM) | relative viability ([1]; first compound 0.253 µM) | relative viability ([1]; first compound 0.8 µM) | relative viability ([1]; first compound 2.53 µM) | relative viability ([1]; first compound 8 µM) | relative viability ([2]; first compound 0.253 µM) | relative viability ([2]; first compound 0.8 µM) | relative viability ([2]; first compound 8 µM) | relative viability ([3]; first compound 0.08 µM) | relative viability ([3]; first compound 0.253 µM) | relative viability ([3]; first compound 0.8 µM) | relative viability ([3]; first compound 2.53 µM) | relative viability ([3]; first compound 8 µM) | relative viability ([4]; first compound 0.253 µM) | relative viability ([4]; first compound 0.8 µM) | relative viability ([4]; first compound 8 µM) | relative viability ([2]; first compound 0.08 µM) | relative viability ([2]; first compound 2.53 µM) | relative viability ([4]; first compound 0.08 µM) | relative viability ([4]; first compound 2.53 µM)
CAL-12T | 0.704 | 0.67 | 0.81 | 0.654 | 0.829 | 1.02 | 1.03 | 1.08 | 0.389 | 0.399 | 0.338 | 0.459 | 0.354 | 0.74 | 0.482 | 0.459 | – | – | – | –
COR-L23 | 0.36 | 0.308 | 0.397 | 0.314 | 0.327 | 1.06 | 0.991 | 0.904 | 0.688 | 0.551 | 0.589 | 0.517 | 0.567 | 0.709 | 0.858 | 0.656 | 0.99 | 0.958 | 0.811 | 0.637
COR-L 105 | 0.909 | 0.732 | 0.675 | 0.612 | 0.75 | 0.889 | 0.586 | 0.753 | 0.508 | 0.447 | 0.381 | 0.492 | 0.398 | 0.381 | 0.39 | 0.332 | 0.767 | 0.761 | 0.356 | 0.377
ChaGo-K-1 | 0.386 | 0.458 | 0.41 | 0.355 | 0.415 | 1.1 | 1.03 | 1.12 | 0.857 | 0.89 | 0.882 | 0.835 | 0.808 | 1.03 | 0.967 | 0.879 | 0.986 | – | 0.814 | –
EKVX | 0.83 | 0.781 | – | 0.837 | 0.862 | 1 | 1.01 | 1.06 | 0.32 | 0.389 | – | 0.432 | 0.438 | 0.452 | 0.384 | 0.574 | 1 | 0.962 | 0.425 | 0.431
EMC-BAC-2 | 0.507 | 0.526 | 0.543 | 0.449 | 0.507 | 1.08 | 1.09 | 1.01 | 0.942 | 0.965 | 0.886 | 0.881 | 0.969 | 0.528 | 0.552 | 0.569 | 1.09 | 1.05 | 0.545 | 0.572
EPLC-272H | 0.696 | 0.888 | 0.689 | 0.664 | 0.583 | 1.16 | 0.903 | 1.15 | 0.335 | 0.318 | 0.289 | 0.304 | 0.266 | 0.331 | 0.323 | 0.457 | 0.949 | 1.02 | 0.301 | 0.347
H3255 | 0.577 | 0.57 | 0.598 | 0.574 | 0.608 | 0.893 | 0.752 | 0.94 | 0.64 | 0.642 | – | 0.66 | 0.692 | 0.493 | 0.386 | 0.475 | 0.779 | 0.822 | 0.548 | 0.455
HARA | 0.622 | 1.03 | 0.762 | 0.758 | 0.967 | 1.1 | 1.06 | 1.05 | 0.715 | 0.632 | 0.622 | 0.59 | 0.84 | 0.472 | 0.405 | 0.412 | 1.06 | 1.02 | 0.401 | 0.466
HCC-15 | 0.681 | 0.737 | 0.798 | 0.561 | 0.785 | 0.956 | 1.08 | 1.12 | 0.362 | 0.392 | 0.356 | 0.389 | 0.434 | 0.768 | 0.877 | 0.774 | 0.984 | 1.03 | 0.739 | 0.819
HCC-44 | 0.975 | 0.995 | 0.967 | 0.904 | 1.04 | 0.872 | 0.875 | 0.948 | 1.04 | 1.04 | 1.08 | 1.04 | 1.12 | 0.715 | 0.585 | 0.584 | 0.913 | 0.803 | 0.645 | 0.532
HCC-78 | 0.599 | 0.816 | 0.776 | 0.742 | 0.862 | 0.458 | 0.468 | 0.405 | 0.79 | 0.708 | 0.868 | 0.785 | 0.65 | 0.24 | 0.24 | 0.224 | 0.596 | 0.512 | 0.197 | 0.206
HCC-366 | 0.339 | 0.371 | 0.437 | 0.347 | 0.304 | 1.01 | 1.03 | 0.9 | 0.47 | 0.323 | 0.325 | 0.339 | 0.24 | 0.179 | 0.166 | 0.127 | 0.949 | 0.906 | 0.177 | 0.111
HCC-827 | 0.615 | 0.65 | 0.67 | 0.623 | 0.685 | 1.03 | 1.08 | 1.05 | 0.541 | 0.491 | 0.429 | 0.495 | 0.49 | 1.05 | 0.863 | 0.8 | 1.08 | 1.08 | 1 | 1.06
HOP-62 | 0.373 | 0.327 | 0.361 | 0.251 | 0.504 | 1.25 | 0.746 | 0.72 | 0.363 | 0.361 | 0.391 | 0.362 | 0.339 | 0.7 | 0.587 | 0.497 | 0.875 | 0.801 | 0.817 | 0.943
